25 compounds from publication PMC3898741, “Substituted imidazopyridazines are potent and selective inhibitors of Plasmodium falciparum calcium-dependent protein kinase 1 (PfCDPK1)” (Bioorganic & Medicinal Chemistry Letters, 2013) can be followed below.

Where two headings read alike, the source gives them in different places.

One series concerns P. falciparum parasite. As to the kind of experiment: In vitro P. falciparum parasite growth (FACS, hydroethidine). Format: cell-based, Plasmodium falciparum. The note with it: for inhibition at 1 µM / EC50: Plasmodium falciparum; for inhibition at 1 µM: at 1 μM inhibitor concentration. On the procedure:
[15] P. falciparum EC50 values were measured using an in vitro model of malaria parasite growth. Compounds were diluted into 2% DMSO and added to parasites 24 h post-invasion in a 96-well plate and incubated under static conditions. Cells were recovered 48 h later and processed for FACS analysis using hydroethidine to stain parasite DNA. Data was acquired using CellQuest Pro software on a FACSCalibur (Becton Dickinson). Growth inhibition was calculated using the following formula: % growth inhibition = (1 − [parasitaemia of culture/parasitaemia of control culture]) ×100.

The next series concerns the target PfCDPK1 (Plasmodium falciparum, UniProt P62344). As to the kind of experiment: PfCDPK1 enzyme inhibition (Kinase-Glo ATP depletion). Format: biochemical. To be noted: for IC50: isolated recombinant enzyme. How it is done:
[10] A high throughput screen of 35,422 compounds comprising a diverse set of small molecules from a variety of commercial suppliers and 8100 kinase-focused compounds (BioFocus) was performed using Kinase-Glo® (Promega) to measure ATP depletion resulting from the kinase reaction. Full length recombinant PfCDPK1 was incubated with MyoA-Tail domain Interacting Protein (MTIP) substrate and the amount of ATP remaining after 1 h was measured by luminescence using a Pherastar plate reader (BMG Labtech).
For orientation: Kinase-Glo reads ATP consumption through a luciferase reaction.

Another series in a line: Mouse pharmacokinetics. Format: in vivo.
The target of series [1] is 73-member human kinase panel. As to the kind of experiment: Kinase selectivity against 73-member human kinase panel. Format: biochemical. To be noted: 1 μM inhibitor concentration; for Kinases hit in human kinase panel: 73-member panel. On the procedure:
[17] Kinase selectivity profiling was carried out at the National Centre for Protein Kinase Profiling in the MRC Protein Phosphorylation Unit at the University of Dundee.

A short description of another series: Measured log D. Format: physicochemical. The source says: Table 6 In vitro ADME and in vivo efficacy data for selected compounds | column: 17; 24; 27; 28
The subject of another series is P. berghei. As to the kind of experiment: 4-Day Peters test in P. berghei mouse model. It is filed as in vivo. To be noted: oral once daily 50 mg/kg, 4 days, relative to vehicle. On the procedure:
In advance of in vivo testing, it was shown that the inhibitors retained potency against the isolated P. berghei CDPK1 enzyme.[16] Compounds were dosed with an oral, once daily 50 mg/kg regime over 4 days in the standard Peters test, and their in vitro ADME and in vivo efficacy data is shown in Table 6.

A short description of series [2]: Human liver microsome stability (HLM). It is filed as in vitro ADME. The note with it: % remaining at 30 min, human microsomes.
A short description of series [3]: Mouse liver microsome stability (MLM). It is filed as in vitro ADME. To be noted: % remaining at 30 min, mouse microsomes.
Another series can be described thus: PAMPA permeability. It is filed as in vitro ADME.
The mark [4] stands for this setting: in vitro parasite growth, 48 h, read-out: P. falciparum EC50.

Chain of PfCDPK1 (P62344 whole entry, the tested form may be a part): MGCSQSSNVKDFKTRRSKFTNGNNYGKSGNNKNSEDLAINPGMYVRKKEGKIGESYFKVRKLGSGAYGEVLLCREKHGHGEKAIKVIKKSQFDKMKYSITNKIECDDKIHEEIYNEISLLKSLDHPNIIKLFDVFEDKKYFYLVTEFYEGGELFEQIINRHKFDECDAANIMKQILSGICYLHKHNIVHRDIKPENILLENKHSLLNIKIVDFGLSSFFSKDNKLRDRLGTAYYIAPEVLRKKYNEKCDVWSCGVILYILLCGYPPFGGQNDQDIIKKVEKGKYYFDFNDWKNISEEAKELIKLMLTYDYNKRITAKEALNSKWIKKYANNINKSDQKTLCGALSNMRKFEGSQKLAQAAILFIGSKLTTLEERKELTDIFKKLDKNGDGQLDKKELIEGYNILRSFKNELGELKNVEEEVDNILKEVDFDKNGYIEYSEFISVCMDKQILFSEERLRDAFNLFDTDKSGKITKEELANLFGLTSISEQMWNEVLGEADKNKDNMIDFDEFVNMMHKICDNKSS

A word on the inhibition: it is the share of the control response that was lost under treatment. The low end stands for little suppression, the high end for strong suppression. A word on the IC50: it is the concentration that inhibits the measured activity by half. As for `NC(=O)c1ccc(-c2cnc3ccc(NCCc4cccnc4)nn23)cc1` [Compound 1], the inhibition at 1 µM in the series on P. falciparum parasite stood at 99%. In addition, the IC50 on PfCDPK1 came out at 59 nM.

In the series on P. falciparum parasite, `NC(=O)c1ccc(-c2cnc3ccc(NCCc4ccccn4)nn23)cc1` [Compound 2] showed an inhibition at 1 µM of 99%. In addition, at PfCDPK1, the IC50 was found to be 61 nM.

Turning to `CC(=O)Nc1cccc(-c2cnc3ccc(NCCc4ccccn4)nn23)c1` [Compound 3], the inhibition at 1 µM in the series with P. falciparum parasite worked out at 35%. Further, on PfCDPK1, the IC50 came out at 66 nM.

`N#Cc1ccc(-c2cnc3ccc(NCCc4cccnc4)nn23)cc1` [Compound 4] registered an inhibition at 1 µM in the series with P. falciparum parasite of 98%. For the same compound, the half-inhibitory concentration (IC50) at PfCDPK1 is 71 nM.

Consider `Fc1cccc(-c2cnc3ccc(NCCc4cccnc4)nn23)c1` [Compound 5], for which the inhibition at 1 µM with P. falciparum parasite turned out to be 6%. Further, at PfCDPK1, the IC50 stood at 80 nM.

Regarding `CC(=O)Nc1cccc(-c2cnc3ccc(N[C@H]4CC[C@H](N)CC4)nn23)c1` [Compound 6], in the series on P. falciparum parasite (setting [4]), the EC50 was 320 nM. The IC50 on PfCDPK1 came out at 11 nM.

Regarding `CN1CCC(Nc2ccc3ncc(-c4cccc(NC(=O)C5CC5)c4)n3n2)CC1` [Compound 7], the EC50 in the series with P. falciparum parasite (setting [4]) was determined as 560 nM. Moreover, at PfCDPK1, the IC50 worked out at 22 nM.

On to `COC(=O)Nc1cccc(-c2cnc3ccc(NC4CCN(C)CC4)nn23)c1` [Compound 8], for which the EC50 in the series with P. falciparum parasite (setting [4]) was determined as 750 nM. The 50% inhibitory concentration (IC50) at PfCDPK1 came out at 18 nM.

As for `CC(C)CCNC(=O)c1ccc(-c2cnc3ccc(N[C@H]4CC[C@H](N)CC4)nn23)cc1` [Compound 9], in the series with P. falciparum parasite, the “EC50 against the P. falciparum parasite” value is “sub-micromolar”. The EC50 with P. falciparum parasite (setting [4]) came to 460 nM. In addition, the IC50 on PfCDPK1 worked out at 16 nM.

As for `CC(C)CCNC(=O)c1ccc(-c2cnc3ccc(NC4CCN(C)CC4)nn23)cc1` [Compound 10], the “EC50 against the P. falciparum parasite” value with P. falciparum parasite is listed as “sub-micromolar”. Further, the EC50 in the series with P. falciparum parasite (setting [4]) turned out to be 780 nM. The IC50 on PfCDPK1 stood at 23 nM.

As a reminder, the logD is lipophilicity at a set pH, counting ionised and neutral species. A lower logD goes with a more hydrophilic compound. Consider `CC(C)CCNc1ccc(-c2cnc3ccc(NC4CCN(C)CC4)nn23)cn1` [Compound 17], for which, in the series “Mouse pharmacokinetics”, the “Clearance (in words)” value is recorded as “moderate to high clearance”, the “Oral bioavailability in mouse (in words)” value is reported as “good oral bioavailability” and the “i.v. t1/2” value is 2 h. Besides, the “Oral %F” value in the series “Mouse pharmacokinetics” (oral) was determined as 84%. Moreover, the “Kinases hit in human kinase panel” value in series [1] was “MKK1, RSK1, PKD1, CHK2, Aurora B, NUAK1, GCK, MLK1, Src, Lck, YES1, and VEGFR”. In addition, the logD in the series “Measured log D” worked out at 3.4. The “Reduction in parasitaemia in vivo” value in the series on P. berghei was found to be 46%. Also, the “HLM (% rem)” value in series [2] turned out to be 85 % rem. The “MLM (% rem)” value in [3] is recorded as 63 % rem. Moreover, in the series on P. falciparum parasite (P. falciparum, read-out: Cell potency), the EC50 was under 500 nM. For the same compound, in the series with P. falciparum parasite (setting [4]), the EC50 was found to be 400 nM.

In the case of `CCCCNc1ccc(-c2cnc3ccc(NC4CCN(C)CC4)nn23)cn1` [Compound 18], the EC50 in the series with P. falciparum parasite (setting [4]) worked out at 430 nM. In addition, at PfCDPK1, the IC50 amounted to 14 nM.

`CN1CCC(Nc2ccc3ncc(-c4ccc(NCC5CC5)nc4)n3n2)CC1` [Compound 19]: the EC50 in the series with P. falciparum parasite (setting [4]) was found to be 450 nM. The IC50 at PfCDPK1 is 36 nM.

On to `COCCNc1ccc(-c2cnc3ccc(NC4CCN(C)CC4)nn23)cn1` [Compound 20], for which the EC50 with P. falciparum parasite (setting [4]) is 670 nM. Also, on PfCDPK1, the IC50 is 25 nM.

In the case of `CC(C)CCNc1cc(-c2cnc3ccc(NC4CCN(C)CC4)nn23)ccn1` [Compound 21], the “Loss in potency against the enzyme in comparison to 17” value on PfCDPK1 (PfCDPK1) is on record as “sevenfold loss in potency”. Moreover, on PfCDPK1, the IC50 was 88 nM.

As a reminder, the Papp is a coefficient for how fast a substance crosses the barrier. Take `CC(C)CCNc1ccc(-c2cnc3ccc(NC4CCN(C)C4)nn23)cn1` (stereo not shown) [Compound 24]: in series [1], the “Selectivity profile against panel of human kinases” value was “good selectivity profiles”; the “Kinases hit in human kinase panel” value was “RSK1 and HER4”. Moreover, in “Measured log D”, the logD came out at 3.5. Also, the “Reduction in parasitaemia in vivo” value with P. berghei is listed as 30%. Moreover, the “HLM (% rem)” value in series [2] was found to be 63 % rem. The “MLM (% rem)” value in series [3] turned out to be 74 % rem. The EC50 in the series on P. falciparum parasite (setting [4]) is 170 nM. In addition, the IC50 on PfCDPK1 amounted to 23 nM. In “PAMPA permeability”, this compound yielded a Papp of 11.4 ×10⁻⁶ cm/s.

As to `CC(C)CCNc1ccc(-c2cnc3ccc(NC4CN(C)C4)nn23)cn1` [Compound 25], the EC50 with P. falciparum parasite (setting [4]) was determined as 930 nM. In addition, at PfCDPK1, the IC50 worked out at 89 nM.

Take `CC(C)CCNc1ccc(-c2cnc3ccc(N4CCN(C)CC4)nn23)cn1` [Compound 26]: the EC50 in the series on P. falciparum parasite (setting [4]) was 2400 nM. The IC50 on PfCDPK1 was 175 nM.

In “Measured log D”, `CC(C)CCNc1ccc(-c2cnc3ccc(N4CCC(N(C)C)CC4)nn23)cn1` [Compound 27] yielded a logD of 3.2. In addition, the “Reduction in parasitaemia in vivo” value in the series on P. berghei turned out to be 7%. Further, the “HLM (% rem)” value in series [2] is on record as 80 % rem. Besides, the “MLM (% rem)” value in [3] worked out at 84 % rem. The EC50 in the series with P. falciparum parasite (setting [4]) was 570 nM. The IC50 at PfCDPK1 is 44 nM. Besides, in the series “PAMPA permeability”, the Papp turned out to be 13.7 ×10⁻⁶ cm/s.

Regarding `CC(C)CCNc1ccc(-c2cnc3ccc(N4CCC(N)CC4)nn23)cn1` [Compound 28], in series [1], the “Selectivity profile against panel of human kinases” value is “good selectivity profiles”; the “Kinases hit in human kinase panel” value was “RSK1, CAMK1, PHK, NUAK1, and HER4”. For the same compound, in “Measured log D”, the logD came out at 2.5. Moreover, in the series on P. berghei, the “Reduction in parasitaemia in vivo” value is given as 11%. Also, the “HLM (% rem)” value in series [2] is recorded as 90 % rem. In addition, the “MLM (% rem)” value in series [3] is 90 % rem. In the series on P. falciparum parasite (setting [4]), the EC50 was found to be 140 nM. Further, the IC50 at PfCDPK1 was 13 nM. The compound also returned a Papp in the series “PAMPA permeability” of 5.5 ×10⁻⁶ cm/s.

For `CC(C)CCNc1ccc(-c2cnc3ccc(NC4CCNCC4)nn23)cn1` [Compound 29], the EC50 in the series with P. falciparum parasite (setting [4]) amounted to 240 nM. Moreover, the IC50 at PfCDPK1 stood at 15 nM.

In the case of `CC(C)CCOc1ccc(-c2cnc3ccc(N[C@H]4CC[C@H](N)CC4)nn23)cn1` [Compound 30], in the series with P. falciparum parasite (setting [4]), the EC50 was found to be 540 nM. Also, the IC50 on PfCDPK1 is 170 nM.

Regarding `CC(C)CCNc1ncc(-c2cnc3ccc(NC4CCN(C)CC4)nn23)cn1` [Compound 31], the EC50 with P. falciparum parasite (setting [4]) was determined as 470 nM. The IC50 on PfCDPK1 was 14 nM.

`CC(C)CCNc1ncc(-c2cnc3ccc(N[C@H]4CC[C@H](N)CC4)nn23)cn1` [Compound 32]: the EC50 in the series with P. falciparum parasite (setting [4]) was determined as 170 nM. On PfCDPK1, the 50% inhibitory concentration (IC50) was 16 nM.

For the compound `CC(C)CCNc1nccc(-c2cnc3ccc(NC4CCN(C)CC4)nn23)n1` [Compound 33], at PfCDPK1, the IC50 amounted to 424 nM.
